Literature values in publication PMC10272271, “MAM-2201 acute administration impairs motor, sensorimotor, prepulse inhibition, and memory functions in mice: a comparison with its analogue AM-2201” (Psychopharmacology, 2023).

How the values were obtained:
CD-1 male mice [1] = system: CD-1 male mice; parameters: method as in Bilel et al. ([2020]); conditions: i.p., value ± SEM, elaborated from earlier data, ref Bilel et al. ([2020]); cited from earlier work
CD-1 male mice [2] = system: CD-1 male mice; parameters: method as in Bilel et al. ([2020]); conditions: i.p., value ± SEM, elaborated from earlier data, ref Bilel et al. ([2020]); cited from earlier work; remark: listed apart in the source
CD-1 male mice [3] = system: CD-1 male mice; parameters: method as in Bilel et al. [2020]; conditions: ref Bilel et al. [2020]; cited from earlier work
CD-1 male mice [4] = system: CD-1 male mice; parameters: method as in Bilel et al. ([2020]); conditions: i.p., value ± SEM, elaborated from earlier data, ref Bilel et al. ([2020]); cited from earlier work; remark: listed apart in the source

In the case of `O=C(c1cccc2ccccc12)c1cn(CCCCCF)c2ccccc12` [AM-2201, 1-[(5-Fluoropentyl)-1H-indol-3-yl](1-naphthylenyl) methanone], the “ED50 (mg/kg), Startle reflex” value (CD-1 male mice [1]) is given as 1.291 ± 0.010 mg/kg, the “ED50 (mg/kg), Visual placing” value (CD-1 male mice [2]) is given as 0.500 ± 0.030 mg/kg and the “time during which distance traveled was reduced” value (CD-1 male mice [3]) is given as “up to 45 min”. For the same molecule, the “ED50 (mg/kg), Overall tactile” value (CD-1 male mice [4]) was 2.120 ± 0.013 mg/kg.
